Assay results: patent US4241184A, “Secondary alcohol dehydrogenase enzyme and use thereof” (priority 1979, dated 1980)
Read-outs that look alike come from different tables or passages of the source.

Assays:
[1] = tested on: secondary alcohol dehydrogenase (SADH); test: Purified secondary alcohol dehydrogenase activity (formation of reduced NAD); type: biochemical, Pseudomonas sp. ATCC 21439
Procedure: Secondary alcohol dehydrogenase (SADH) from an obligate methanol utilizer, Pseudomonas sp. ATCC 21439 was purified as follows. […] 0.05 M sodium phosphate buffer, pH 7.0 with 0.5 mM dithiothretol (buffer A) and were disrupted sonically (5×1 min.). The crude extract was separated by centrifugation. The crude extract was heat-treated at 50° C. in a water bath for 10 minutes. The resulting precipitate was removed by centrifugation. To the supernatant solution, 25 ml of protamine sulfate solution (2% solution in 0.1 M Tris base) was added dropwise with continuous stirring. After standing for 30 minutes, the extract was centrifuged. The supernatant solution was fractionated with solid ammonium sulfate. The material precipitating between 30 and 60% saturation was collected and was dialized overnight against buffer A. The The dialized material was applied to a DEAE-cellulose column (3 cm by 35 cm) that had been equilibrated with buffer A. The secondary alcohol dehydrogenase activity was eluted in the void volume. This DEAE-cellulose eluate was concentrated by ammonium sulfate fractionation. Material precipitating between 30 and 50% ammonium sulfate saturation was collected by centrifugation and dialyzed overnight against A. This fraction was further washed and filtered through an Amicon unit with XM 50 membrane. The concentrated fraction (6 ml) inside the Amicon unit was applied to an Affi-Gel Blue column (0.8 cm×18 cm) which had been equilibrated with buffer A for affinity chromatography. The column was washed overnight with buffer A (0.18 ml./min.) and then was eluted with buffer A containing 5 mM NAD. Each 1 ml. fraction was collected.
The purified secondary alcohol dehydrogenase enzyme (SADH) may be used directly for converting C3 -C6 secondary alcohols to the corresponding methyl ketones by the procedures described above; however, a source of NAD^+ must be added to the reaction medium. One can determine the NAD-linked secondary alcohol dehydrogenase activity with a fluorescence spectrophotometer (Perkin Elmer, Model MPF 44A) by following the formation of reduced NAD (Ex 340 nm, Em 460 nm). The assay system (3 ml.) will typically contain: sodium phosphate buffer pH 7.0, 150 μmol; NAD 1.0 μmol; a given amount of enzyme preparation; and 20 μmol secondary alcohol. The reaction is started by the addition of secondary alcohol. One unit of SADH enzyme activity represents the reduction of one nmole NAD per minute.
The effect of metal-chelating agents and thioreagents on the activity of the purified SADH enzyme were studied. […] The possibility of ethanol or n-propanol as an inhibitor was studied.

[2] = tested on: secondary alcohol dehydrogenase; test: Purified yeast secondary alcohol dehydrogenase: substrates, electron acceptors, inhibitors, stoichiometry; type: biochemical, Pichia sp. NRRL Y-11,328
Procedure: Large scale cultures of Pichia sp. NRRL Y-11,328 were grown with aeration at 30° C. in a 14-liter New Brunswick f fermentor in a mineral salt medium containing methanol (0.4%, v/v) as the sole carbon source. The cells (200 g., wet weight) were suspended in […] sodium phosphate buffer, pH 7.0, containing 1 mM dithiothreitol (buffer A), and crude extracts were prepared as described previously. To the crude extracts, 18 ml. of protamine sulfate solution [2% solution in 0.1 M tris (hydroxymethyl) aminomethane (tris) base] was added dropwise with continuous stirring. After standing for 30 min., the extracts were centrifuged at 20,000×g. for 60 min. The supernatant solution was fractionated with solid ammonium sulfate. Extracts were brought to 50% of saturation with respect to ammonium sulfate by addition of 313 g. of the salt per liter of extract. Precipitated proteins was removed by centrifugation, and 137 g. of ammonium sulfate was added per liter of the supernatant liquid to bring it to 70% of saturation. Material precipitating between 50 and 70% of saturation was collected by centrifugation and dissolved in buffer A. This preparation was dialyzed overnight against buffer A, and the dialyzed material was applied to a DEAE-cellulose column (5×40 cm) that had been equilibrated with buffer A. The sample was washed with 200 ml. of buffer A and eluted with 2 liters of buffer A that contained NaCl in a linear gradient running from a concentration of 0 to 0.5 M. Fractions of 15 ml. were collected. Fractions containing secondary alcohol dehydrogenase activity were pooled and were termed DEAE-cellulose eluate. The DEAE-cellulose eluate was concentrated by ammonium sulfate fractionation.
Secondary alcohol dehydrogenase activity was measured spectrophotometrically at 340 nm with a NAD^+ as an electron acceptor. The reaction mixture, in a total 3.0 ml., contained 50 mM phosphate buffer, pH 8.0, 5μ moles NAD^+, crude extracts, and subtrate. The reactions were started by addition of 100 μl of 0.1 M substrate and the rate of NAD^+ reduction was measured. Protein concentration was determined by the method of Lowry et al.
The substrate specificity of the purified secondary alcohol dehydrogenase was examined spectrophotometrically.

[3] = tested on: P(40) particulate fraction of Methylosinus sp. (CRL-15, NRRL B-11,202); test: Oxidation of n-alkenes and n-alkanes by P(40) particulate fraction; type: biochemical; conditions: substrate oxidized to its epoxide or alcohol, 30° C.
[4] = tested on: P(40) particulate fraction of Methylosinus sp. (CRL-15, NRRL B-11,202); test: Effect of metals on propylene epoxidation and methane hydroxylation by P(40) fraction; type: biochemical; conditions: metal 10^-3 M; for Methane-Oxidizing Activity in presence of metal: control 4.0; for Propylene-Oxidizing Activity in presence of metal: control […]
Procedure: The oxidation of methane and propylene by particulate [(P)40 and(P)80] fractions and soluble [S(80)] fraction was measured at 30° C. by estimating the production of methanol and propylene oxide, respectively. The reaction mixtures contained in 1.0 ml: 150 mM potassium phosphate buffer, pH 7.0 containing 5 mM MgCl2, 0.6 ml; 10 μmoles NADH, and cellular fraction.
Reaction mixtures were contained in 10 ml vials at 4° C. Vials were sealed with rubber caps. The gaseous phase in the vials was removed using vacuum and then was replaced with a gas mixture of methane or propylene and oxygen at a 1:1, v/v ratio. Oxidation of other gaseous n-alkanes and n-alkenes was examined as described above. For liquid substrates, 10 μl of substrate was used directly.
Since the methane mono-oxygenase from methane-utilizing bacteria is a copper or iron-containing protein (Tonge et al., J. Biochem., 161: 333-344 (1977)), we have examined the effect of copper and iron salts on the oxidation of methane and propylene by the P(40) particulate fraction of Methylosinus sp. (CRL-15, NRRL B-11,202). The rate of hydroxylation of methane to methanol and epoxidation of propylene to propylene oxide was increased twofold in the presence of added copper salts (Table XII).

[5] = tested on: Methylococcus capsulatus (CRL Ml, NRRL B-11,219); test: Effect of inhibitors on epoxidation of propylene and hydroxylation of methane, cell-containing enzyme preparation; type: cell-based; conditions: Methylococcus capsulatus, NRRLB11, 1 h
[6] = tested on: Methylobacterium organophilum (CRL 26, NRRL B-11,222); test: as above; type: cell-based; conditions: NRRLB11, 1 h
[7] = tested on: Methylosinus trichosporium OB3b (NRRL B-11,196); test: as above; type: cell-based; conditions: NRRLB11, 1 h
[8] = examined spectrophotometrically
[9] = purified SADH, each inhibitor 1 mM, measured spectrofluorometrically
[10] = read-out: % Inhibition, Epoxidation
[11] = read-out: % Inhibition, Hydroxylation

## OC1CCCCC1 [cyclohexanol]
[1]
  substrate specificity of purified SADH: lower rate
[1]; 2-butanol = 100%
  relative percent rate of oxidation by SADH: 4%

## CCCCCO [pentan-1-ol]
[2]; [8]
  oxidation by the purified secondary alcohol dehydrogenase: not oxidized

## C=CC=C [Butadiene]
[3]
  Rate of Product Formation: 0.63 μ moles/hr/mg of protein

## [Cl][Fe]([Cl])[Cl] [Ferric Chloride]
[4]
  Methane-Oxidizing Activity in presence of metal: 4.8 μmoles/hr/mg protein
  Propylene-Oxidizing Activity in presence of metal: 5.8 μmoles/hr/mg protein

## O=Cc1ccccc1 [benzaldehyde]
[1]; 2-butanol = 100%
  relative percent rate of oxidation by SADH: not oxidized

## CC [Ethane]
[3]
  Rate of Product Formation: 3.2 μ moles/hr/mg of protein

## [Fe+2] [ferrous]
[1]; [9]
  % inhibition of SADH activity: 50%

## c1c[nH]cn1 [Imidazole]
[5]; [10]
  inhibition at 1000 µM: 95%
[5]; [11]
  inhibition at 1000 µM: 95%
[2]
  inhibition of secondary alcohol dehydrogenase activity: strongly inhibited
[6]; [10]
  inhibition at 1000 µM: 100%
[6]; [11]
  inhibition at 1000 µM: 100%
[7]; [10]
  inhibition at 1000 µM: 95%
[7]; [11]
  inhibition at 1000 µM: 90%

## CCC(O)CO (stereo not drawn) [butane 1,2-diol]
[2]; [8]
  oxidation by the purified secondary alcohol dehydrogenase: not oxidized
[1]; 2-butanol = 100%
  relative percent rate of oxidation by SADH: not oxidized

## [Mg+2] [Mg^++]
[1]; [9]
  % inhibition of SADH activity: 0%

## CC(C)O [2-propanol]
[2]
  NAD^+ Reduced: 5.4 µmol
  Product formed: 5.5 µmol
[2]; [8]
  oxidation by the purified secondary alcohol dehydrogenase: catalyzed the oxidation
[1]
  substrate specificity of purified SADH: highest
[1]; 2-butanol = 100%
  relative percent rate of oxidation by SADH: 85%

## CCN1C(=O)C=CC1=O [N-ethylmalemide]
[1]; [9]
  % inhibition of SADH activity: 6%
[1]; purified SADH, each inhibitor 1 mM, measured spectrofluorometrically, listed as N-ethylmaleimide
  % inhibition of SADH activity: not inhibited

## N#C[S][Hg][S]C#N [mercuric thiocyanate]
[2]
  inhibition of secondary alcohol dehydrogenase activity: inhibited

## [Cl][Cu] [Cuprous Chloride]
[4]
  Methane-Oxidizing Activity in presence of metal: 7.2 μmoles/hr/mg protein
  Propylene-Oxidizing Activity in presence of metal: 9.2 μmoles/hr/mg protein

## C=C [Ethylene]
[3]
  Rate of Product Formation: 1.27 μ moles/hr/mg of protein

## O=C(O)c1cc(SSc2ccc([N+](=O)[O-])c(C(=O)O)c2)ccc1[N+](=O)[O-] [5,5'-dithiobis(2-nitrobenzoic acid)]
[1]; [9]
  % inhibition of SADH activity: 100%
[1]; purified SADH, each inhibitor 1 mM, measured spectrofluorometrically, listed as 5,5'-dithiobis (2-nitrobenzoic acid)
  % inhibition of SADH activity: inhibited

## CO [methanol]
[2]; [8]
  oxidation by the purified secondary alcohol dehydrogenase: not oxidized

## O=S(=O)([O-])[O-].[Cu+2] [Cupric Sulfate]
[2]
  inhibition of secondary alcohol dehydrogenase activity: inhibited
[4]
  Methane-Oxidizing Activity in presence of metal: 7.1 μmoles/hr/mg protein
  Propylene-Oxidizing Activity in presence of metal: 9.0 μmoles/hr/mg protein

## cytochrome c
[2]
  electron acceptor for the purified enzyme: could not act as electron carrier

## CCCCC(C)O (stereo not drawn) [2-hexanol]
[2]; [8]
  oxidation by the purified secondary alcohol dehydrogenase: catalyzed the oxidation
[1]
  substrate specificity of purified SADH: lower rate
[1]; 2-butanol = 100%
  relative percent rate of oxidation by SADH: 2%

## CC=O [acetaldehyde]
[1]
  substrate specificity of purified SADH: lower rate
[1]; 2-butanol = 100%
  relative percent rate of oxidation by SADH: 4%

## CC(O)CCO (stereo not drawn) [butane 1,3-diol]
[2]; [8]
  oxidation by the purified secondary alcohol dehydrogenase: not oxidized
[1]
  substrate specificity of purified SADH: lower rate
[1]; 2-butanol = 100%
  relative percent rate of oxidation by SADH: 2%

## C=CCC [1-Butene]
[3]
  Rate of Product Formation: 2.18 μ moles/hr/mg of protein

## CC(O)C(C)O (stereo not drawn) [butane 2,3-diol]
[1]
  substrate specificity of purified SADH: lower rate
[1]; 2-butanol = 100%
  relative percent rate of oxidation by SADH: 2.5%

## [Zn+2] [Zn^++]
[1]; [9]
  % inhibition of SADH activity: 0%
[1]; purified SADH, each inhibitor 1 mM, measured spectrofluorometrically, listed as zinc
  % inhibition of SADH activity: did not stimulate

## [Mn+2] [Mn^++]
[1]; [9]
  % inhibition of SADH activity: 0%

## CCCCCCC(C)O (stereo not drawn) [2-octanol]
[2]; [8]
  oxidation by the purified secondary alcohol dehydrogenase: not oxidized

## CCCCO [butan-1-ol]
[2]
  oxidation by the purified secondary alcohol dehydrogenase: not oxidized

## [Cu+2] [cupric]
[1]; [9]
  % inhibition of SADH activity: 25%

## O=C(O)c1cc[c]([Hg+])cc1.[OH-] [p-hydroxymercuribenzoate]
[2]
  inhibition of secondary alcohol dehydrogenase activity: strongly inhibited
[1]; [9]
  % inhibition of SADH activity: 100%

## Oc1ccccc1 [phenol]
[1]
  relative percent rate of oxidation by SADH: not oxidized

## [Ni+2] [nickel]
[1]; [9]
  % inhibition of SADH activity: 20%

## O=[N+]([O-])[O-].[Ag+] [silver nitrate]
[2]
  inhibition of secondary alcohol dehydrogenase activity: inhibited

## CCCCCC(C)O (stereo not drawn) [2-Heptanol]
[2]; [8]
  oxidation by the purified secondary alcohol dehydrogenase: not oxidized

## CCCO [n-propanol]
[2]
  oxidation by the purified secondary alcohol dehydrogenase: not oxidized
[1]
  % inhibition of SADH activity: did not inhibit

## O=C(O)CCC(=O)O [succinic acid]
[1]; 2-butanol = 100%
  relative percent rate of oxidation by SADH: not oxidized

## Ferrous Sulfate
[4]
  Methane-Oxidizing Activity in presence of metal: 4.8 μmoles/hr/mg protein
  Propylene-Oxidizing Activity in presence of metal: 5.9 μmoles/hr/mg protein

## C=O [formaldehyde]
[1]
  relative percent rate of oxidation by SADH: not oxidized

## CC(O)CO (stereo not drawn) [1,2-propandiol]
[2]; [8]
  oxidation by the purified secondary alcohol dehydrogenase: not oxidized

## [Co+2] [Co^++]
[1]; [9]
  % inhibition of SADH activity: 0%

## CC(C)CO [isobutanol]
[1]; 2-butanol = 100%
  relative percent rate of oxidation by SADH: not oxidized

## CCO [ethanol]
[2]
  oxidation by the purified secondary alcohol dehydrogenase: not oxidized
[1]
  % inhibition of SADH activity: did not inhibit

## [Fe+3] [ferric]
[1]; [9]
  % inhibition of SADH activity: 35%

## CCCC(C)O (stereo not drawn) [2-pentanol]
[2]; [8]
  oxidation by the purified secondary alcohol dehydrogenase: catalyzed the oxidation
[1]
  substrate specificity of purified SADH: lower rate
[1]; 2-butanol = 100%
  relative percent rate of oxidation by SADH: 5%
